Data from US20250018047A1, “METHODS AND COMPOSITIONS FOR TARGETED PROTEIN DEGRADATION” (Ranok Therapeutics (Hangzhou) Co. Ltd., priority 2021, published 2025).
Where two headings read alike, the source gives them in different places.

What was measured:
[1] = molecular target: T1, KRAS(G12D)/SOS1 (Homo sapiens, UniProt P01116, G12D); experiment: KRAS(G12D)/SOS1 homogeneous time-resolved fluorescence (HTRF) assay; type: binding; details: absence of GTP, 4° C. for 3 hr
T1 construct: purchased Cisbio 63ADK000CB16PEG
Procedure: The test compound was mixed and incubated with reaction components, incubated in a sealed plate at 4° C. for 3 hr and fluorescence was measured using a PerkinElmer Envision plate reader.

[2] = tested on: AsPC-1 human pancreatic adenocarcinoma; experiment: CellTiter-Glo cancer cell line proliferation assay, AsPC-1; type: cell-based
Procedure: (§1) Cell lines were cultured according to ATCC and recommendations.
(§2) CellTiter-Glo® Reagent Cancer Cell Line Proliferation Assays
(§3) Cells were plated in 96-well tissue culture plates at 4,000 cells/well and incubated at 37° C./5% CO2 for 24 hr in 100 μl of media. […] Cells were then treated with test compounds at various concentrations with a final concentration of 0.5% DMSO/well, and then incubated at 37° C./5% CO2 for 24 hr. 100 μl of CellTiter-Glo® Reagent (Promega Corporation, Madison, WI) was added to each well and processed according manufacturer's protocol. Results were analyzed and IC50-values were calculated in GraphPad 7 software.

[3] = tested on: A-427 human lung carcinoma; experiment: CellTiter-Glo cancer cell line proliferation assay, A-427; type: cell-based; details: read-out: A427 at 24 hrs, IC50
Procedure: as §1, §2, §3

[4] = molecular target: T2, KRAS(G12D) (Homo sapiens, UniProt P01116, G12D); experiment: SW1990 WB assay (degradation DC50, Dmax); type: cell-based; details: Western blot, SW1990 cells
T2 construct: endogenous in cells; host or cells: SW1990
T2 sequence (P01116 1-188 isoform P01116-2 G12D): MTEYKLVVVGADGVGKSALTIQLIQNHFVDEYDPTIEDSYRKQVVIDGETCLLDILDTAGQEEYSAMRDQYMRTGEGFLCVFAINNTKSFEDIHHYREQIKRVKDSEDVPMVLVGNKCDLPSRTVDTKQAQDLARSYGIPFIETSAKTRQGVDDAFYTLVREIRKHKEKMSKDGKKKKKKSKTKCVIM

T1 sequence (P01116 1-188 isoform P01116-2 G12D): as above

SMILES | IC50 [1] [nM] | IC50 ([2]; Homo sapiens, ASPC1, 24 hr) [nM] | IC50 ([3]; Homo sapiens, A-427, 24 hr) [nM] | DC50 [4] [nM] | Dmax [4] [%] | IC50 ([2]; 24 hr, read-out: ASPC1 at 24 hrs, IC50) [nM] | IC50 ([3]; 24 hr) [nM] | WB data SW1990 DMax [4]
C#Cc1cccc2cc(O)cc(-c3ncc4c(N5CC6CCC(C5)N6)nc(OCC5(CN6CCN(CC7CCN(c8ccc9c(c8)CN(C8CCC(=O)NC8=O)C9=O)CC7)[C@@H](C7CC7)C6)CC5)nc4c3F)c12 (stereo partly drawn) [Compound 96] | < 100 | < 100 | 100 to 1000 | > 1000 | 10 to 50 | – | – | –
C#Cc1cccc2cc(O)cc(-c3ncc4c(N5CC6CCC(C5)N6)nc(OCC5(CN6CCC(C(=O)N7CCN(c8ccc9c(c8)CN(C8CCC(=O)NC8=O)C9=O)CC7)CC6)CC5)nc4c3F)c12 (stereo not drawn) [Compound 85] | – | > 1000 | < 100 | 100 to 1000 | > 50 | – | – | –
COc1nc(-c2cc(O)cc3ccccc23)c(F)c2nc(OCC3(CN4CCN(CC5CCN(c6ccc7c(c6)C(=O)N(C6CCC(=O)NC6=O)C7=O)CC5)CC4)CC3)nc(N3CC4CCC(C3)N4)c12 (stereo not drawn) [Compound 66] | < 100 | 100 to 1000 | 100 to 1000 | – | – | – | – | –
C#Cc1cccc2cc(O)cc(-c3ncc4c(N5CC6CCC(C5)N6)nc(OCC5(CN6CCN(CC7CCN(c8ccc9c(c8)C(=O)N(C8CCC(=O)NC8=O)C9=O)CC7)CC6)CC5)nc4c3F)c12 (stereo not drawn) [Compound 56] | < 100 | – | 100 to 1000 | < 100 | > 50 | – | – | –
O=C1CCC(N2C(=O)c3ccc(N4CCC(CN5CCN(CC6(COc7nc(N8CC9CCC(C8)N9)c8cnc(-c9cc(O)cc%10ccccc9%10)c(F)c8n7)CC6)CC5)CC4)cc3C2=O)C(=O)N1 (stereo not drawn) [Compound 47] | < 100 | > 1000 | > 1000 | – | – | – | – | –
C#Cc1c(F)ccc2cc(O)cc(-c3ncc4c(N5CC6CCC(C5)N6)nc(OCC5(CN6CCC(N7CCC(c8ccc9c(c8)CN(C8CCC(=O)NC8=O)C9=O)CC7)CC6)CC5)nc4c3F)c12 (stereo not drawn) [Compound 107] | < 100 | < 100 | – | < 100 | – | – | – | –
C#Cc1cccc2cc(O)cc(-c3ncc4c(N5CC6CCC(C5)N6)nc(OCC5(CN6CCN(CC7CCN(c8ccc9c(c8)CN(C8CCC(=O)N(C)C8=O)C9=O)CC7)CC6)CC5)nc4c3F)c12 (stereo not drawn) [Compound 71] | < 100 | – | 100 to 1000 | > 1000 | 10 to 50 | – | – | –
C#Cc1c(F)ccc2cc(O)cc(-c3nc(OC)c4c(N5CCN(C(=O)CC)[C@H](CC#N)C5)nc(OCC5(CN6CCN(CC7CCN(c8ccc9c(c8)CN(C8CCC(=O)NC8=O)C9=O)CC7)CC6)CC5)nc4c3F)c12 (stereo partly drawn) [Compound 92] | < 100 | > 1000 | > 1000 | – | – | – | – | –
C#Cc1c(F)ccc2cc(O)cc(-c3nc(OC)c4c(N5CC6CCC(C5)N6)nc(OCC5(CN6CCN(C7CCN(c8ccc9c(c8)CN(C8CCC(=O)NC8=O)C9=O)CC7)CC6)CC5)nc4c3F)c12 (stereo not drawn) [Compound 112] | < 100 | – | – | < 100 | – | – | – | –
CN1C[C@H](N2CCN(CC3CCN(c4cccc5c4C(=O)N(C4CCC(=O)NC4=O)C5=O)CC3)CC2)C[C@@H]1COc1nc(N2CC3CCC(C2)N3)c2cnc(-c3cc(O)cc4ccccc34)c(F)c2n1 (stereo partly drawn) [Compound 35] | < 100 | > 1000 | > 1000 | – | – | – | – | –
C#Cc1cccc2cccc(-c3ncc4c(N5CC6CCC(C5)N6)nc(OC[C@H]5C[C@@H](N6CCN(C[C@H]7CC[C@H](Nc8ccc9c(c8)C(=O)N(C8CCC(=O)NC8=O)C9=O)CC7)CC6)CN5C)nc4c3F)c12 (stereo partly drawn) [Compound 77] | < 100 | > 1000 | > 1000 | – | – | – | – | –
CN1C[C@H](N2CCN(Cc3ccc4c(c3)C(=O)N(C3CCC(=O)NC3=O)C4=O)CC2)C[C@@H]1COc1nc(N2CC3CCC(C2)N3)c2cnc(-c3cc(O)cc4ccccc34)c(F)c2n1 (stereo partly drawn) [Compound 36] | < 100 | > 1000 | > 1000 | – | – | – | – | –
O=C1CCC(N2C(=O)c3ccc(N4CCC(C(=O)N5CCN(CC6(COc7nc(N8CC9CCC(C8)N9)c8cnc(-c9cc(O)cc%10ccccc9%10)c(F)c8n7)CC6)CC5)CC4)cc3C2=O)C(=O)N1 (stereo not drawn) [Compound 39] | < 100 | > 1000 | > 1000 | – | – | – | – | –
C#Cc1c(F)ccc2cc(O)cc(-c3ncc4c(N5CC6CCC(C5)N6)nc(OCC5(CN6CCN(C7CCN(c8ccc9c(c8)CN(C8CCC(=O)NC8=O)C9=O)CC7)CC6)CC5)nc4c3F)c12 (stereo not drawn) [Compound 104] | < 100 | 100 to 1000 | – | < 100 | > 50 | – | – | –
C#Cc1c(F)ccc2cc(O)cc(-c3ncc4c(N5CCN(C(=O)CC)[C@@H](CC#N)C5)nc(OCC5(CN6CCN(CC7CCN(c8ccc9c(c8)CN(C8CCC(=O)NC8=O)C9=O)CC7)CC6)CC5)nc4c3F)c12 (stereo partly drawn) [Compound 97] | < 100 | > 1000 | > 1000 | – | – | – | – | –
O=C1CCC(N2Cc3cc(N4CCN(CC5(COc6nc(N7CC8CCC(C7)N8)c7cnc(-c8cccc9cccc(Cl)c89)c(F)c7n6)CC5)CC4)ccc3C2=O)C(=O)N1 (stereo not drawn) [Compound 80] | < 100 | > 1000 | > 1000 | – | – | – | – | –

SMILES | IC50 [1] [nM] | IC50 ([2]; Homo sapiens, ASPC1, 24 hr) [nM] | IC50 ([3]; Homo sapiens, A-427, 24 hr) [nM] | DC50 [4] [nM] | Dmax [4] [%] | IC50 ([2]; 24 hr, read-out: ASPC1 at 24 hrs, IC50) [nM] | IC50 ([3]; 24 hr) [nM] | WB data SW1990 DMax [4]
O=C1CCC(N2C(=O)c3ccc(CN4CCN([C@H]5CN6CCC[C@@]6(COc6nc(N7CC8CCC(C7)N8)c7cnc(-c8cc(O)cc9ccccc89)c(F)c7n6)C5)CC4)cc3C2=O)C(=O)N1 (stereo partly drawn) [Compound 50] | < 100 | > 1000 | > 1000 | – | – | – | – | –
C#Cc1c(F)ccc2cc(O)cc(-c3nc(O)c4c(N5CC6CCC(C5)N6)nc(OCC5(CN6CCN(CC7CCN(c8ccc9c(c8)CN(C8CCC(=O)NC8=O)C9=O)CC7)CC6)CC5)nc4c3F)c12 (stereo not drawn) [Compound 101] | – | 100 to 1000 | > 1000 | > 1000 | < 10 | – | – | –
C#Cc1c(F)ccc2cc(O)cc(-c3ncc4c(N5CC6CCC(C5)N6)nc(OCC5(CN6CCN(CC7CCN(c8ccc9c(c8)C(=O)N(C8CCC(=O)NC8=O)C9=O)CC7)CC6)CC5)nc4c3F)c12 (stereo not drawn) [Compound 59] | < 100 | 100 to 1000 | 100 to 1000 | – | – | – | – | –
CN1C[C@H](N2CCN(C(=O)C3CCN(c4ccc5c(c4)C(=O)N(C4CCC(=O)NC4=O)C5=O)CC3)CC2)C[C@@H]1COc1nc(N2CC3CCC(C2)N3)c2cnc(-c3cc(O)cc4ccccc34)c(F)c2n1 (stereo partly drawn) [Compound 37] | < 100 | > 1000 | > 1000 | – | – | – | – | –
O=C1CCC(N2Cc3cc(CN4CCN(CC5(COc6nc(N7CC8CCC(C7)N8)c7cnc(-c8cc(O)cc9ccccc89)c(F)c7n6)CC5)CC4)ccc3C2=O)C(=O)N1 (stereo not drawn) [Compound 40] | < 100 | > 1000 | > 1000 | – | – | – | – | –
C#Cc1cccc2cc(O)cc(-c3ncc4c(N5CC6CCC(C5)N6)nc(OCC5(CN(C)CC6CCN(c7ccc8c(c7)CN(C7CCC(=O)NC7=O)C8=O)CC6)CC5)nc4c3F)c12 (stereo not drawn) [Compound 84] | – | > 1000 | > 1000 | 100 to 1000 | > 50 | – | – | –
CN1C[C@H](N2CCN(CC3CCN(c4ccc5c(c4)C(=O)N(C4CCC(=O)NC4=O)C5=O)CC3)CC2)C[C@@H]1COc1nc(N2CC3CCC(C2)N3)c2cnc(-c3cc(O)cc4ccccc34)c(F)c2n1 (stereo partly drawn) [Compound 34] | < 100 | > 1000 | > 1000 | – | – | – | – | –
O=C1CCC(N2C(=O)c3cccc(N4CCC(CN5CCN(CC6(COc7nc(N8CC9CCC(C8)N9)c8cnc(-c9cc(O)cc%10ccccc9%10)c(F)c8n7)CC6)CC5)CC4)c3C2=O)C(=O)N1 (stereo not drawn) [Compound 42] | < 100 | > 1000 | > 1000 | – | – | – | – | –
C#Cc1c(F)ccc2cc(O)cc(-c3ncc4c(N5CC6CCC(C5)N6C(=O)CC)nc(OCC5(CN6CCN(CC7CCN(c8ccc9c(c8)CN(C8CCC(=O)NC8=O)C9=O)CC7)CC6)CC5)nc4c3F)c12 (stereo not drawn) [Compound 91] | – | > 1000 | > 1000 | > 1000 | < 10 | – | – | –
C#Cc1cccc2cc(O)cc(-c3ncc4c(N5CC6CCC(C5)N6C(=O)C(F)(F)F)nc(OCC5(CN6CCN(CC7CCN(c8ccc9c(c8)CN(C8CCC(=O)NC8=O)C9=O)CC7)CC6)CC5)nc4c3F)c12.Cl (stereo not drawn) [Compound 87] | – | – | – | – | – | 100 to 1000 | 100 to 1000 | B (Dmax = 10-50%)
C#Cc1cccc2cccc(-c3ncc4c(N5CC6CCC(C5)N6)nc(OC[C@H]5CC[C@@H](CN6CCN(CC7CCC(Nc8ccc9c(c8)C(=O)N(C8CCC(=O)NC8=O)C9=O)CC7)CC6)N5C)nc4c3F)c12 (stereo partly drawn) [Compound 79] | < 100 | > 1000 | > 1000 | – | – | – | – | –
C#Cc1cccc2cc(O)cc(-c3ncc4c(N5CC6CCC(C5)N6)nc(OCC5(CN6CCN(CC7CCN(c8ccc9c(c8)C(=O)N(C8CCC(=O)NC8=O)C9)CC7)CC6)CC5)nc4c3F)c12 (stereo not drawn) [Compound 86] | – | < 100 | < 100 | < 100 | > 50 | – | – | –
C#Cc1c(F)ccc2cc(O)cc(-c3ncc4c(N5CC6CCC(C5)N6)nc(OCC5(CN6CCC(CN7CCC(c8ccc9c(c8)CN(C8CCC(=O)NC8=O)C9=O)CC7)CC6)CC5)nc4c3F)c12 (stereo not drawn) [Compound 111] | < 100 | – | – | < 100 | > 50 | – | – | –
C#Cc1cccc2cccc(-c3ncc4c(N5CC6CCC(C5)N6)nc(OCC5(CN6CCN(C(=O)C7CCN(c8ccc9c(c8)CN(C8CCC(=O)NC8=O)C9=O)CC7)CC6)CC5)nc4c3F)c12 (stereo not drawn) [Compound 51] | < 100 | > 1000 | > 1000 | – | – | – | – | –
C#Cc1cccc2cccc(-c3ncc4c(N5CC6CCC(C5)N6)nc(OCC5(CN6CCN(CC7CCN(c8ccc9c(c8)C(=O)N(C8CCC(=O)NC8=O)C9=O)CC7)CC6)CC5)nc4c3F)c12 (stereo not drawn) [Compound 48] | < 100 | > 1000 | > 1000 | – | – | – | – | –
